Assays:
[1] = tested on: 3T3-L1 cells; assay: Stimulation of lipid uptake, red oil staining with image analysis; type: cell-based; conditions: mean for n = 3 tests
Experimental: Principle: adipocyte differentiation is a decisive stage in the transformation of pre-adipocytes into lipid-laden mature adipocytes. The intracellular accumulation of lipids is determined by conventional red oil staining (neutral lipid marker). The stained lipids can then be quantified under the microscope.
Protocol: 3T3-L1 cells were inoculated and cultured for 4 days (multiplication). This was followed by a differentiation phase (incubation with the conventional differentiation cocktail) and a maturation phase (maturation cocktail) in the absence or presence of sarsasapogenin at various concentrations.
At the end of that period, the cells were washed, fixed and stained with red oil. The cell layers were digitally photographed and the red staining quantified by image analysis.
The percentage red oil areas, shown in table 1, were expressed relative to the untreated control cells and the test was validated by comparison with pioglitazone (10 μM), the positive control for differentiation stimulation.

[2] = tested on: Human pre-adipocyte cells; assay: Gene expression profile, effect on differentiation (pre-adipocyte culture, CodeLink Whole Genome chips); type: cell-based
Experimental: (§1) Two studies were conducted: one addressed the effect of sarsasapogenin on differentiation using a pre-adipocyte culture; the other addressed the effect of sarsasapogenin on mature adipocytes.
(§2) Human pre-adipocyte cells were inoculated and cultured (multiplication) for 5 days. Then: • either the cells were exposed to the induction medium in the presence or absence of sarsasapogenin for 8 or 24 h before culture arrest (study of the effect of sarsasapogenin on differentiation), • or the cells were exposed to the differentiation medium for 10 days, yielding mature adipocytes, then exposed or not exposed to sarsasapogenin for 24 h (study of the effect of sarsasapogenin on maturation).
(§3) At each time point, the mRNA of the cells was extracted using a commercially available kit (Roche Kit V6—Extraction of total RNA). In parallel, solvent controls were run and subjected to extraction in the same manner. The expression profile of the gene sequences was determined using CodeLink Whole Genome chips for each sample of RNA purified. The values obtained were normalized on the controls.

[3] = tested on: human adipocytes; assay: Stimulation of lipid uptake in human adipocytes; type: cell-based
Source text: 4. Stimulation of Lipid Uptake by 3T3-L1 Cells and Human Adipocytes
The results were reproduced using human adipocytes.

[4] = tested on: 3T3-L1 cells; assay: Residual proliferation capability during the differentiation phase (Hoechst test); type: cell-based; conditions: 3 days with differentiation cocktail
Experimental: The pre-adipocytes undergo a multiplication phase (clonal expansion) before beginning to differentiate.
A product stimulating proliferation would thus enable adipocytes that have already entered the differentiation phase to maintain a replication capability.
Protocol: 3T3-L1 cells were inoculated and cultured to confluence over 4 days (clonal expansion). The conventional differentiation cocktail was added to the culture and the cells were incubated in the absence (control) or in the presence of rising concentrations of sarsasapogenin for 3 days. Following incubation, the cell layers were harvested and subjected to a Hoechst test to quantify cell proliferation vs. the proliferation of the control cells and the cells incubated in the presence of pioglitazone (positive control).

[5] = tested on: 3T3-L1 cells; assay: Stimulation of differentiation: G3PDH activity; type: cell-based; conditions: mean for n = 3 tests
Experimental: Principle: after an in vivo proliferation phase, the pre-adipocytes begin differentiating under the influence of specific endogenous factors (in particular, glucocorticoids and insulin). In vitro, those factors are included in the conventional cocktail used to trigger differentiation.
The maintenance or amplification of differentiation when the cells are subsequently cultured in a simple maintenance medium is determined by assay of glycerol-3-phosphate dehydrogenase, G3PDH (or GPDH). The enzyme is involved in energy metabolism. Its activity regularly increases through the differentiation process.
Protocol: as previously, 3T3-L1 cells were cultured to confluence, then underwent differentiation induction with the conventional cocktail and were incubated in the absence or presence of sarsasapogenin at various concentrations. After 3 days of incubation, the differentiation cocktail was replaced by culture maintenance medium in the presence or absence of sarsasapogenin. After 3 days of incubation, the cell layers were harvested and G3PDH activity determined.

[6] = tested on: mature adipocytes; assay: Gene expression profile, effect on mature adipocytes (CodeLink Whole Genome chips); type: cell-based, Human; conditions: mature adipocytes exposed 24 h
Experimental: as §1, §2, §3

[7] = time points 8 and 24 h of differentiation
[8] = values normalized on the controls, time point not stated

## C[C@H]1CC[C@@]2(OC1)O[C@H]1C[C@H]3[C@@H]4CC[C@@H]5C[C@@H](O)CC[C@]5(C)[C@H]4CC[C@]3(C)[C@H]1[C@@H]2C [Sarsasapogenin, (3β, 5β, 25-S)-Spirostan-3-ol]
[1]; 5 μM
  % change in red oil content vs. control: +135%
[1]; 10 μM
  % change in red oil content vs. control: +274%
[1]; 17.5 μM
  % change in red oil content vs. control: +492%
[1]; 17.5 μM, listed as sarsasapogenin
  % change in red oil content vs. control: greater than 492%
[2]; after 8 and 24 h of differentiation, normalized on solvent controls
  activation of the gene coding for protein MNT (MAX binding protein): induces activation
[2]; normalized on the controls
  cyclin D3 gene up-regulation: markedly up-regulated
  gene coding for Kruppel-like factor 5 (KLF5): increase
[2]; time point 24 h, normalized on the controls
  induction of NPTXR / pentraxin-related gene: > 7
[2]; [7]
  SLC2A5/GLUT5 gene activation: activated
  gene RAFTLIN activation: activated
[2]; values normalized on the controls, study and time point not stated
  induction of adipose differentiation-related protein (ADRP) or adipophilin: > 4
[2]; [8]
  gene COPS3 up-regulation: > 5
  gene COPS5 up-regulation: > 5
  increase in KLK10 (kallikrein): > 10
[3]
  lipid incorporation results in human adipocytes: reproduced
[4]; 5 μM
  Proliferation vs. Control: +20.5% (p < 0.01)
[4]; 10 μM
  Proliferation vs. Control: +31.6% (p < 0.01)
[4]; 20 μM
  Proliferation vs. Control: +35.2% (p < 0.01)
[5]; 5 μM
  Change in G3PDH activity vs. control (%): +103% (p < 0.01)
[5]; 10 μM
  Change in G3PDH activity vs. control (%): +201% (p < 0.01)
[5]; 15 μM
  Change in G3PDH activity vs. control (%): +429% (p < 0.01)
[5]; 17.5 μM
  Change in G3PDH activity vs. control (%): +535% (p < 0.01)
[6]
  status of gene p21: activated status of gene p21 was maintained

## CCc1ccc(CCOc2ccc(CC3SC(=O)NC3=O)cc2)nc1 (stereo not shown) [pioglitazone, reference compound]
[1]; 10 μM
  % change in red oil content vs. control: +359%
[4]; 10 μM
  Proliferation vs. Control: +49% (p < 0.01)
